Assay results reported in patent US9221800B2, “Isoxazole treatments for diabetes” (The Board of Regents of the University of Texas System, priority 2011, dated 2015).

Legend:
human islets = experiment: Gene expression by quantitative RT-PCR in cultured human islets; type: cell-based
Description: MIN6 cells were cultured in DMEM (Gibco), containing 25 mM glucose, 10% fetal bovine serum, 10 mM Hepes pH 7.4, 10.2 mM L-glutamine, […] sodium pyruvate, 2.5 mM β-mercaptoethanol, 100 U/ml penicillin and 100 μg/ml streptomycin at 37° C. in 10% CO2. Human islets were obtained from the ICR Basic Science Islet Distribution and from the University of Alabama, Birmingham Islet Resource Facility and were cultured in RPMI 1640 with 11 mM glucose for up to 1 year. The medium was changed twice weekly and the islets were subcultured when they reached 90% confluence. For Isx treatments, cells were incubated in medium containing either Isx or the equivalent volume of DMSO vehicle (0.04%). To measure GSIS, cells were placed in Krebs-Ringer bicarbonate/Hepes containing 0.1% bovine serum albumin and 2 mM glucose for 2 h, and stimulated for 15 min with 20 mM glucose, a 1× amino-acid mixture (concentrations as in DMEM), or 50 nM Exendin-4. U0126 (10 μM), nifedipine (3 μM), BAPTA (10 μM), wortmanin (0.5 μM) or FK506 (0.1 μM) were added for 1-24 h as indicated.
Total RNA was extracted from human islet preparations with TRI reagent according to manufacturer's protocol (Ambion). cDNA was prepared from total RNA by a mixture of random hexamer- and oligo-dT-primed reverse transcription (iScript Biorad). The expression of insulin and glucagon relative to 18S RNA was evaluated by TaqMan assays (Applied Biosystems). Relative expression of pancreatic factors was determined using Power SYBR Green PCR Master Mix (Applied Bio systems). Primer sequences for qRT-PCR are in STable 1. SYBR Green and TaqMan probe-based PCR was performed using the ABI 7500 DNA Sequence Detection System with standard fluorescent chemistries and thermal cycling conditions specified by the manufacturer: 50° C. for 2 min, 95° C. for 10 min for one cycle and an additional 40 cycles at 95° C. for 15 sec, and then 58° C. for 1 min.

MIN6 cells = experiment: Quantitative RT-PCR of endogenous insulin gene expression in MIN6 cells; type: cell-based, mouse
Description: FIGS. 2A-E. Isx (LSH-1) activates insulin expression and improves β cell function in MIN6 cells. (FIG. 2A) Dose-response relationship of MIN6 cells treated with 5-80 μM Isx for 24 h or DMSO (0.08%—similar to the highest concentration of Isx). Whole cell lysates (40 μg) were subjected to immunoblotting using antibodies against BETA2NeuroD1, MafA, PDX-1, pERK1/2 (pT183/pY185), acetylated histones ACH4-K5K8K12K16 and ACH3K9 and total histone H3. (FIG. 2B) Quantitative RT-PCR of murine insulin1 and insulin2 gene expression in MIN6 cells treated with Isx for 24 h as in FIG. 2A. (FIG. 2C) GSIS in 15 min from MIN6 cells pretreated with Isx or vehicle for 48 h in the presence or absence of the MEK1/2 inhibitor U0126 for 24 h. (FIG. 2D) Insulin content measured by ELISA in MIN6 cells treated with Isx for 24 or 48 h. […]
Total RNA was extracted from human islet preparations with TRI reagent according to manufacturer's protocol (Ambion). cDNA was prepared from total RNA by a mixture of random hexamer- and oligo-dT-primed reverse transcription (iScript Biorad). The expression of insulin and glucagon relative to 18S RNA was evaluated by TaqMan assays (Applied Biosystems). Relative expression of pancreatic factors was determined using Power SYBR Green PCR Master Mix (Applied Bio systems). […]

BETA2 = experiment: Acetylation of BETA2 (anti-myc immunoprecipitates, anti-acetyl lysine immunoblot); type: cell-based; settings: cells overexpressing myc-BETA2 (FIG. 3C)
Description: FIGS. 3A-E. Isx (LSH-1) activates transcription factors that regulate insulin gene expression and insulin production. (FIG. 3A) Insulin promoter reporter activity in HEK293 cells transfected with BETA2, MafA, PDX-1, or (FIG. 3B) WT MafA or mutant MafA, treated with Isx or vehicle for 24 h. (FIG. 3C) Immunoblotting of anti-myc immunoprecipates using anti-acetyl lysine (Ac-K) and anti-BETA2 from cells overexpressing myc-BETA2. (FIG. 3D) Chromatin immunoprecipitation (ChIP) analysis of MafA and BETA2 (FIG. 3E) association with the insulin promoter in MIN6 cells in response to a 10-min glucose stimulation.

p300 = target: T1, p300 (Homo sapiens, UniProt Q09472); experiment: HAT activity of HATs expressed in 293 cells; type: cell-based; settings: combination of ERK2 expression and Isx, 24 h (FIG. 8)
T1 construct: expressed in transfected cells; host or cells: HEK293
T1 sequence (Q09472 whole entry, species assumed): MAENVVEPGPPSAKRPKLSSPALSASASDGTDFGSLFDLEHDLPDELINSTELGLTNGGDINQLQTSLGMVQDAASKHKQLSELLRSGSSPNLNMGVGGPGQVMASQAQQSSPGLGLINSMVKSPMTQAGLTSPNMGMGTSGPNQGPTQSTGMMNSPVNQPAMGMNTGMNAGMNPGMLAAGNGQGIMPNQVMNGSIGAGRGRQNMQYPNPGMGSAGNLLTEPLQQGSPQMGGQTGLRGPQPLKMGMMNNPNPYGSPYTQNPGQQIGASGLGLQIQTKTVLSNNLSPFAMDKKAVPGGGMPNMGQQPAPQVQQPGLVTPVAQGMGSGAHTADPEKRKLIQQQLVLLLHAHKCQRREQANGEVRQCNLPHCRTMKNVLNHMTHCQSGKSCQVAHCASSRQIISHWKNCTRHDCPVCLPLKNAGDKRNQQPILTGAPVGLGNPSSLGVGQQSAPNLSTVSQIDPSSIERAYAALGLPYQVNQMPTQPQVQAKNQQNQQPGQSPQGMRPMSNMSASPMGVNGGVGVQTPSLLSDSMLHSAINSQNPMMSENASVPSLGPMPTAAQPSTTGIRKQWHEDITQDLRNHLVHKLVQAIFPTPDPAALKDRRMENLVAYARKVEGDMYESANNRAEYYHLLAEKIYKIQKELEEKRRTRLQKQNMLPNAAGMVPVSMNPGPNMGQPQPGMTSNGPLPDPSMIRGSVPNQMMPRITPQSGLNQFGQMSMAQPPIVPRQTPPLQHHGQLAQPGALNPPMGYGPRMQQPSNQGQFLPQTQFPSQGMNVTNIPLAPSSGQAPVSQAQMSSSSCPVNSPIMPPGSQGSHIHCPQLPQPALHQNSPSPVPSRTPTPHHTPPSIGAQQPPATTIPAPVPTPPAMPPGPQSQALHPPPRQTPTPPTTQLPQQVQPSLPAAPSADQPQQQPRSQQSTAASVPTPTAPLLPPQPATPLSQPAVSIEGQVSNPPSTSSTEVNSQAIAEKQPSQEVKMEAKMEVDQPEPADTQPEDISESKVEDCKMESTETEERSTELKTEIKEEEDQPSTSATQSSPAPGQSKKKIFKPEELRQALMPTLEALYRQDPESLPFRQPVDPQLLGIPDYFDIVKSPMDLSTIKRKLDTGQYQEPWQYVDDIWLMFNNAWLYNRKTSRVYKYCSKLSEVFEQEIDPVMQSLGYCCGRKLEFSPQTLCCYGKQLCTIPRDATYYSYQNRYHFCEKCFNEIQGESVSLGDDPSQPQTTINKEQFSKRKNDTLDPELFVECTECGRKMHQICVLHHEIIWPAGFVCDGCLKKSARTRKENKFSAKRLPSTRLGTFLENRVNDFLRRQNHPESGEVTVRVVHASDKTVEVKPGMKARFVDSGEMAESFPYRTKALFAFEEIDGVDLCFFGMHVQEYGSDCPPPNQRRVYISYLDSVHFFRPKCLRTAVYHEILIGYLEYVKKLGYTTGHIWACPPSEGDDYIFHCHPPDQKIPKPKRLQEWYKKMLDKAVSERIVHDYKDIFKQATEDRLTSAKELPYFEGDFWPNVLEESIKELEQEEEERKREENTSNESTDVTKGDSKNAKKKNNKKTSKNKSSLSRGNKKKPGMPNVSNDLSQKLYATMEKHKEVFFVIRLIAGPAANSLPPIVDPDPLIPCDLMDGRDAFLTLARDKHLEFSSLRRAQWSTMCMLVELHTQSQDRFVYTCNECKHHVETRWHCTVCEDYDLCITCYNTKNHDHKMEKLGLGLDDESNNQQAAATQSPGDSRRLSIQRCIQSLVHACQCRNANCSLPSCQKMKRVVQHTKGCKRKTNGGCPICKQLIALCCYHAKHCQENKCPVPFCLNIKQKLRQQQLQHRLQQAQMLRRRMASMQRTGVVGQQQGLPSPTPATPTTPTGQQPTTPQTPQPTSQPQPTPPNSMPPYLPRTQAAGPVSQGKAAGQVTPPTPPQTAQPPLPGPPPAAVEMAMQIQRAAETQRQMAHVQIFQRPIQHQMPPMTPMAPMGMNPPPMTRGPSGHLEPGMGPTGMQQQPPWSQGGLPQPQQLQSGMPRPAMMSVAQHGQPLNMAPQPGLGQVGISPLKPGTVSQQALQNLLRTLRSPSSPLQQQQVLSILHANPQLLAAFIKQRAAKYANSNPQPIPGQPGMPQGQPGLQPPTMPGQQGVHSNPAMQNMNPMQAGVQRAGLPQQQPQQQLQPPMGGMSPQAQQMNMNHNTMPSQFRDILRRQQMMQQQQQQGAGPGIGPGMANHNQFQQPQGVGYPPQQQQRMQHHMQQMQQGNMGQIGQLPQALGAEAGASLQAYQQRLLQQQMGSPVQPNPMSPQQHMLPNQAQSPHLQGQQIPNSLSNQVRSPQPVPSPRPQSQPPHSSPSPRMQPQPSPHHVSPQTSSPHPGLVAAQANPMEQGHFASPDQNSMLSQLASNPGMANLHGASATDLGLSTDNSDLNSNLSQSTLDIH
Description: (§1) (FIG. 8A) Combined effect of Isx treatment for 24 h and WT ERK2 (W) or kinase dead K52R ERK2 (R) on the HAT activities of p300, and (FIG. 8B) other HATs, CBP, PCAF and GCN5-L2, transfected in HEK293 cells.

PCAF = target: T2, PCAF (Homo sapiens, UniProt Q92831); experiment: HAT activity of HATs expressed in 293 cells; type: cell-based; settings: combination of ERK2 expression and Isx, 24 h (FIG. 8)
T2 construct: expressed in transfected cells; host or cells: HEK293
T2 sequence (Q92831 whole entry, species assumed): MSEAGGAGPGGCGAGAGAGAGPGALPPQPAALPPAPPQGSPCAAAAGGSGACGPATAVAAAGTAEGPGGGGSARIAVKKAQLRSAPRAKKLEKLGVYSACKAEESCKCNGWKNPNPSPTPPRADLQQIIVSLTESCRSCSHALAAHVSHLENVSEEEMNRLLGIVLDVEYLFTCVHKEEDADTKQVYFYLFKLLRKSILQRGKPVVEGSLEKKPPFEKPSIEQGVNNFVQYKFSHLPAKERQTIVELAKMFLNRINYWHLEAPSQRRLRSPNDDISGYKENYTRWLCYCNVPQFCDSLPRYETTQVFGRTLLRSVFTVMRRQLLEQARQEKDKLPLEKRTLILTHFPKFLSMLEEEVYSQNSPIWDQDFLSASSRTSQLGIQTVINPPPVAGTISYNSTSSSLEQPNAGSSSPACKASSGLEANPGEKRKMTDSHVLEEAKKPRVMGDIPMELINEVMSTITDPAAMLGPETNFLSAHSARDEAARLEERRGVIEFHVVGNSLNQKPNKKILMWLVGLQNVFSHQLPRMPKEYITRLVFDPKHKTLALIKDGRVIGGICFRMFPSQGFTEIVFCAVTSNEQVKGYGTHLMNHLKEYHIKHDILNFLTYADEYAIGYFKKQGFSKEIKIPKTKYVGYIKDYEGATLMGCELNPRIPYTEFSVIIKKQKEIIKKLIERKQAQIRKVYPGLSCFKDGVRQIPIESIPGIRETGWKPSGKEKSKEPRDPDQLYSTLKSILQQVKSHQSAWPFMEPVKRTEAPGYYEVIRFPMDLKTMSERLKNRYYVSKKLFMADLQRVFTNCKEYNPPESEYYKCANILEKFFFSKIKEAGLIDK
Description: as §1

[1] = human islets in culture for 6 months, Isx for 1-2 days (40 μM, FIG. 1A)
[2] = islets in culture for one year, 40 μM Isx 2-8 days

## O=C(NC1CC1)c1cc(-c2cccs2)on1 [Isx, N-cyclopropyl-5-(thiophen-2-yl)isoxazole-3-carboxamide]
Human islets; [1]
  glucagon mRNA decrease: ~80%
  preproinsulin mRNA: large increase
Human islets; islets in culture for one year
  PCNA and Oct4 mRNA expression: Neither PCNA, an indicator of proliferation, nor Oct4, a factor associated with stem cells, showed consistent or substantial changes in mRNA expression
Human islets; [2]
  increases in PDX-1, the Hnfs, and Isl1 mRNA: relatively small
  increases in the other factors (mRNA; other than PDX-1, the Hnfs, Isl1): more than 10 fold
Human islets; islets in culture for one year, after several days of Isx exposure (FIG. 1D)
  Preproinsulin mRNA increase: ≥ 50 fold
Human islets; islets in culture for one year, at 24 h (FIG. 1D)
  Preproinsulin mRNA increase: 10 fold
Human islets; islets in culture for one year, peaking after 4 days of exposure
  expression of glucokinase and Glut2: increased markedly
MIN6 cells; Isx 24 h (FIG. 2B)
  increase in preproinsulin mRNA: ≤ 4 fold
MIN6 cells; MIN6 cells (FIG. 12)
  concentration for optimal activation of endogenous insulin gene expression: 20 µM
BETA2
  acetylation of BETA2: more strongly than the HDAC inhibitor sodium butyrate
p300
  p300 HAT activity: increased
PCAF
  PCAF HAT activity: not
